This note sets out measurements from patent US8765729B2, “Cancer therapy” (Aeolus Sciences, Inc., priority 2001, dated 2014).

Series [1] is described as follows: SOD activity (cytochrome C method). It counts as biochemical. An excerpt:
FIGS. 1A-1H show the structures of certain generic and specific definitions of compounds suitable for use in the present invention. With reference to FIG. 1C, mimetics of the invention can be of Formula I or Formula II, or dimeric forms thereof, an example of a dimeric form being shown in FIG. 1D. With reference to FIG. 1H, the SOD activities of certain of the depicted compounds are shown in Table 1 (as measured by the cytochrome C method): […]

In series [2] the test system is R3230 mammary adenocarcinoma cells in Z-chambers. In words: Tumor development in Z-chambers. It counts as in vivo, Fisher-344 rats. The settings on record: 6 mg/kg i.p. 24 hours before implantation of 2.5 mil./ml cells. On the procedure:
FIG. 4. Animals were pretreated with different SOD mimetics (6 mg/kg i.p.) 24 hours before implantation of 2.5 mil./ml R3230 mammary adenocarcinoma cells in Z-chambers.
These chambers are constructed from customized plexi-glass rings with internal diameter of 10 mm and have a pore on the side. The two open surfaces are covered by nylon mesh (pore size 180 microns, Millipore, Mass.) and glued to the rings. Fibrinogen (Human fibrinogen, plasminogen depleted, CalBiochem) is prepared in DMEM, Gibco BRL) and a concentration of 4-5 mg/ml is utilized for the studies. Although the Fischer rats used in the study are immune competent, this purified batch of fibrinogen has been recognized to be very well conserved across species lines. It has already been shown that early angiogenic response to human fibrinogen is very similar to rat fibrinogen in fibrin gel chambers. The two different types of fibrinogen have also been tested in the Z-Chambers and no difference was found in angiogenic and healing response. Human fibrinogen was used.
The Fibrin Z-Chambers have fibrinogen solution poured inside the chamber through the pore and followed by 2 units of thrombin. […]
The Z-Chambers were harvested on day 1 or 12 post surgery. […] The depth of either the tumor tissue (tumor growth) or granulation tissue (wound healing) was measured with calipers on the 4×6 inch print. […]

Series [3] concerns oral mucositis induced by acute radiation. Nature of the series: Oral mucositis induced by acute radiation in hamsters. It counts as in vivo. As for the experimental part:
Forty hamsters were given an acute radiation dose directed to their oral mucosa. Test materials will be applied by injection, or topically (three times per day) beginning the day before radiation and continuing until day 20. Mucositis were evaluated on alternate days beginning on day 6 (day of radiation=day 0) and continuing until the conclusion of the experiment on day 28.
Forty (40) hamsters were used. The hamsters were randomized into five (5) groups of eight (8) animals each. Each group was assigned a different treatment of 0.2 ml tid as follows:
Parameters measured included the mucositis score, weight change and survival. For the evaluation of mucositis, the animals were anesthetized with inhalation anesthetics ([…] or Halothane), and the left pouch everted. Mucositis was scored both clinically during the laboratory portion of the study and in a blinded manner (at the conclusion of the study). Clinical scoring was performed by visual comparison to a validated photographic scale, ranging from 0 for normal, to 5 for severe ulceration.
• 0 Pouch completely healthy. No erythema or vasodilation • 1 Light to […] erythema and vasodilation. No erosion of mucosa • 2 Severe erythema and vasodilation. Erosion of superficial aspects of mucosa leaving denuded areas. Decreased stippling of mucosa. • 3 Formation of off-white ulcers in one or more places. Ulcers may have a yellow/gray due to pseudomembrane. Cumulative size of ulcers should equal about ¼ of the pouch. Severe erythema and vasodilation. • 4 Cumulative seize of ulcers should equal about ½ of the pouch. Loss of pliability. Severe erythema and vasodilation. • 5 Virtually all of pouch is ulcerated. Loss of pliability (pouch can only partially be extracted from mouth) A score of 1-2 is considered to represent a mild stage of the disease, whereas a score 3-5 is considered to indicate moderate to severe mucositis. Results
Chi-square analysis of the total number of days the animals in each group spent with a score of three or more. This statistic is a measure of severity of ulceration, a clinically important outcome. Significant efficacy is indicated in red.

Setting [4] is: high dose IP (1 mg/ml tid), total days 192.
[5] abbreviates: high dose topical (1 mg/ml tid), total days 192.
[6] abbreviates: low dose IP (0.25 mg/ml tid), total days 192.
The mark [7] stands for this setting: low dose topical (0.25 mg/ml tid), total days 182.

`CCn1cc[n+](CC)c1-c1c2nc(c(-c3n(CC)cc[n+]3CC)c3ccc([nH]3)c(-c3n(CC)cc[n+]3CC)c3nc(c(-c4n(CC)cc[n+]4CC)c4ccc1[nH]4)C=C3)C=C2.[Mn+3]` [Compound 10150, manganese(III)tetrakis(N-diethylimidazolium-2,5-yl)porphyrin]: the SOD activity in series [1] is 14,789 U/mg. In addition, in series [2], the tumor development result is “Significant (p<0.01) inhibition of tumor development”. The “Percent Days > 3” value in series [3] (INC-01, 0.25 mg/ml IP, control 45.8, P 0.001) was 18.8%; in series [3] (INC-01, 0.25 mg/ml Topical, control 45.8, P 0.953), 45.6%; in series [3] (INC-01, 1 mg/ml IP, control 45.8, P 0.005), 31.3%; in series [3] (INC-01, 1 mg/ml Topical, control 45.8, P 0.148), 38%; in series [3] (INC-02, 0.25 mg/ml IP, control 43.3, P 0.004), 28.6%; in series [3] (INC-02, 1.5 mg/ml IP, control 43.3, P 0.002), 27.6%. Besides, the “Percent Days > 3” value was 37.5% in series [3] (INC-02, 1.5 mg/ml Topical, control 43.3, P 0.298); 27.6% in series [3] (INC-02, 5 mg/ml Topical, control 43.3, P 0.002); 38.1% in series [3] (INC-03, 1 mg/ml IP, control 33.3, P 0.113); 47.3% in series [3] (INC-04, 0.25 mg/ml IP, control 43.9, P 0.485); 42.1% in series [3] (INC-05, 0.25 mg/ml IP, control 68.8, P 0.001); 33.3% in series [3] (INC-05, 1.5 mg/ml IP, control 68.8, P 0.001). The “reduction in the percent of days with Mucositis Scores ≧3” value in series [3] (IP, 0.2 ml of 0.25 mg/ml TID, 1.5 mg/kg/day) was found to be 59%. Also, the “Days < 3” value in series [3] (setting [4]) was 132; in series [3] (setting [5]) it was 119; in series [3] (setting [6]), 156; in series [3] (setting [7]), 99. For the same compound, the “Days >= 3” value is reported as 60 in series [3] (setting [4]), 73 in series [3] (setting [5]), 36 in series [3] (setting [6]) and 83 in series [3] (setting [7]). Also, the “% Days >= 3” value in series [3] (high dose IP, control 45.8, P 0.005) amounted to 31.3%; in series [3] (high dose topical, control 45.8, P 0.148) it was 38.0%; in series [3] (low dose IP, control 45.8, P <0.001), 18.8%; in series [3] (low dose topical, control 45.8, P 0.953), 45.6%. The mucositis severity result in series [3] (high dose topical, not statistically significant) was “tended to reduce mucositis severity”. In addition, the “severity of mucositis associated with radiation therapy” value in series [3] (most evident with IP administration) is “markedly reduces the severity of mucositis”. For the same compound, the “incidence of severe mucositis” value in series [3] (topical dosing, both concentrations) is listed as “not in either group treated by topical dosing”.

On to “CuZn-SOD: dimeric copper- and zinc-containing enzyme found in the cytosol of all cells”, for which the SOD activity in series [1] is on record as 2,200 U/mg.
